For this experiment, the system named is CD2F1 mice, intracerebral L1210 leukemia, survival T/C. The experiment in a line: NCI In Vivo Anticancer Drug Screen. Data for tumor model L1210 Leukemia (intracerebral) in CD2F1 (CDF1) mice. Particulars: higher = longer survival. As for the experimental part:
The antitumor activity of compounds was measured in mice bearing transplantable tumors. Survival or tumor size were measured and the results are expressed as the measurement made in the treated group (T) divided by the measurement made in the vehicle treated control group (C). The tumor model used in this assay is L1210 Leukemia (intracerebral) in CD2F1 (CDF1) mice

Where [1] appears, read: endpoint: median survival time, dose: 64.0 mg/kg/injection, schedule: Q01DX005 (ip), vehicle: saline with Tween-80.
The mark [2] stands for this setting: endpoint: median survival time, dose: 32.0 mg/kg/injection, schedule: Q01DX005 (ip), vehicle: saline with Tween-80.

The structures appear in SMILES notation. Where “and” joins values, the source holds several entries; their conditions need not be identical. Identical values can stand only once. Toxic doses and inconclusive results are not listed.

Turning to `CN(N=O)C(=O)N[C@@H](C=O)[C@@H](O)[C@H](O)[C@H](O)CO`, the T/C runs as follows: (endpoint: mean survival time, dose: 50.0 mg/kg/injection, schedule: Q01DX005 (ip), vehicle: saline) 100 % of control; (endpoint: mean survival time, dose: 50.0 mg/kg/injection, schedule: Q01DX009 (ip), vehicle: saline) 102 % of control; (endpoint: mean survival time, dose: 100.0 mg/kg/injection, schedule: Q01DX005 (ip), vehicle: saline) 102 % of control; (endpoint: mean survival time, dose: 100.0 mg/kg/injection, schedule: Q01DX009 (ip), vehicle: saline) 100 % of control; (endpoint: mean survival time, dose: 200.0 mg/kg/injection, schedule: Q01DX005 (ip), vehicle: saline) 104 % of control; (endpoint: mean survival time, dose: 200.0 mg/kg/injection, schedule: Q01DX009 (ip), vehicle: saline) 100 % of control. The T/C is, setting by setting: (endpoint: mean survival time, dose: 400.0 mg/kg/injection, schedule: Q01DX009 (ip), vehicle: saline) 95 % of control; (endpoint: median survival time, dose: 75.0 mg/kg/injection, schedule: Q01DX001 (ip), vehicle: DMSO) 102 % of control; (endpoint: median survival time, dose: 75.0 mg/kg/injection, schedule: Q01DX001 (ip), vehicle: other) 103 % of control; (endpoint: median survival time, dose: 75.0 mg/kg/injection, schedule: Q01DX001 (oral), vehicle: saline) 109 % of control; (endpoint: median survival time, dose: 150.0 mg/kg/injection, schedule: Q01DX001 (ip), vehicle: DMSO) 114 % of control; (endpoint: median survival time, dose: 150.0 mg/kg/injection, schedule: Q01DX001 (ip), vehicle: other) 107 % of control. The T/C (endpoint: median survival time, dose: 150.0 mg/kg/injection, schedule: Q01DX001 (oral), vehicle: saline) is 100 % of control; the T/C (endpoint: median survival time, dose: 300.0 mg/kg/injection, schedule: Q01DX001 (ip), vehicle: DMSO) is 114 % of control; the T/C (endpoint: median survival time, dose: 300.0 mg/kg/injection, schedule: Q01DX001 (ip), vehicle: other) is 109 % of control; the T/C (endpoint: median survival time, dose: 300.0 mg/kg/injection, schedule: Q01DX001 (oral), vehicle: saline) is 113 % of control; the T/C (endpoint: median survival time, dose: 500.0 mg/kg/injection, schedule: Q01DX001 (ip), vehicle: DMSO) was 112 % of control; the T/C (endpoint: median survival time, dose: 500.0 mg/kg/injection, schedule: Q01DX001 (ip), vehicle: other) is 103 % of control. In addition, under “endpoint: median survival time, dose: 500.0 mg/kg/injection, schedule: Q01DX001 (oral), vehicle: saline”, the T/C is 100 % of control.

In the case of `C[C@]12CCC(=O)C=C1CC[C@@H]1[C@@H]2[C@@H](O)C[C@@]2(C)[C@H]1CC[C@]2(O)C(=O)COP(=O)(O)OCC1OC(n2ccc(N)nc2=O)C(O)C1O` (some centres undefined), the T/C was 116 % of control (endpoint: median survival time, dose: 18.75 mg/kg/injection, schedule: Q01DX005 (ip), vehicle: other); 160 % of control (endpoint: median survival time, dose: 150.0 mg/kg/injection, schedule: Q01DX005 (ip), vehicle: other); 169 % of control (endpoint: median survival time, dose: 300.0 mg/kg/injection, schedule: Q01DX005 (ip), vehicle: other).

As for `COC(COC(=O)N1CCN(C=O)CC1)C1=C(N2CC2)C(=O)C(C)=C(N2CC2)C1=O` (centres undefined), the T/C is, setting by setting: (endpoint: median survival time, dose: 0.75 mg/kg/injection, schedule: Q01DX009 (ip), vehicle: saline) 115 % of control; (endpoint: median survival time, dose: 1.5 mg/kg/injection, schedule: Q01DX009 (ip), vehicle: saline) 105 % of control; (endpoint: median survival time, dose: 6.0 mg/kg/injection, schedule: Q01DX009 (ip), vehicle: saline) 160 % of control.

Turning to `CN(Cc1cnc2nc(N)nc(N)c2n1)c1ccc(C(=O)N[C@@H](CCC(=O)O)C(=O)O)cc1`, the T/C is, setting by setting: (endpoint: median survival time, dose: 1.2 mg/kg/injection, schedule: Q04DX003 (ip), vehicle: saline) 114 % of control; (endpoint: median survival time, dose: 2.3 mg/kg/injection, schedule: Q04DX003 (ip), vehicle: saline) 121 % of control; (endpoint: median survival time, dose: 18.4 mg/kg/injection, schedule: Q04DX003 (ip), vehicle: saline) 164 % of control; (endpoint: median survival time, dose: 36.8 mg/kg/injection, schedule: Q04DX003 (ip), vehicle: saline) 164 % of control.

Consider `CCN(CC)c1ccc2cc3ccc(=[N+](CC)CC)cc-3oc2c1`, for which the T/C is 104 % of control (endpoint: median survival time, dose: 4.0 mg/kg/injection, schedule: Q01DX005 (ip), vehicle: saline); 98 % of control (endpoint: median survival time, dose: 8.0 mg/kg/injection, schedule: Q01DX005 (ip), vehicle: saline); 105 % of control and 113 % of control (endpoint: median survival time, dose: 16.0 mg/kg/injection, schedule: Q01DX005 (ip), vehicle: saline).

For `NC(=S)N/N=C/c1ccc(O)cn1`, the T/C is 95 % of control and 105 % of control (endpoint: median survival time, dose: 12.0 mg/kg/injection, schedule: Q01DX005 (ip), vehicle: saline); 107 % of control and 115 % of control (endpoint: median survival time, dose: 24.0 mg/kg/injection, schedule: Q01DX005 (ip), vehicle: saline); 113 % of control and 117 % of control (endpoint: median survival time, dose: 48.0 mg/kg/injection, schedule: Q01DX005 (ip), vehicle: saline); 121 % of control (endpoint: median survival time, dose: 96.0 mg/kg/injection, schedule: Q01DX005 (ip), vehicle: saline).

On to `CN(C)P1(=O)NCCCO1` (centres undefined), for which the T/C (endpoint: median survival time, dose: 80.0 mg/kg/injection, schedule: Q01DX001 (ip), vehicle: saline) was 91 % of control; the T/C (endpoint: median survival time, dose: 160.0 mg/kg/injection, schedule: Q01DX001 (ip), vehicle: saline) was 90 % of control; the T/C (endpoint: median survival time, dose: 320.0 mg/kg/injection, schedule: Q01DX001 (ip), vehicle: saline) is 92 % of control; the T/C (endpoint: median survival time, dose: 640.0 mg/kg/injection, schedule: Q01DX001 (ip), vehicle: saline) is 95 % of control; the T/C (endpoint: median survival time, dose: 1280.0 mg/kg/injection, schedule: Q01DX001 (ip), vehicle: saline) was 91 % of control.

On to `Cc1ncc(CO)c(C)c1O`, for which the T/C is, setting by setting: (endpoint: median survival time, dose: 128.0 mg/kg/injection, schedule: Q01DX005 (ip), vehicle: Klucel (hydroxypropylcellulose) (HPC)) 105 % of control and 106 % of control; (endpoint: median survival time, dose: 256.0 mg/kg/injection, schedule: Q01DX005 (ip), vehicle: Klucel (hydroxypropylcellulose) (HPC)) 111 % of control and 114 % of control.

On to `O=C1C=CN(C2OC(CO)C(O)C2O)C(=O)C1` (centres undefined), for which the T/C by setting is: (endpoint: mean survival time, dose: 33.0 mg/kg/injection, schedule: Q01DX009 (ip), vehicle: saline) 150 % of control; (endpoint: median survival time, dose: 100.0 mg/kg/injection, schedule: Q01DX009 (ip), vehicle: saline) 116 % of control; (endpoint: median survival time, dose: 200.0 mg/kg/injection, schedule: Q01DX009 (ip), vehicle: saline) 105 % of control; (endpoint: median survival time, dose: 400.0 mg/kg/injection, schedule: Q01DX009 (ip), vehicle: saline) 107 % of control.

For `Nc1nncs1`, the T/C (endpoint: median survival time, dose: 7.5 mg/kg/injection, schedule: Q01DX009 (ip), vehicle: Klucel (hydroxypropylcellulose) (HPC)) is 113 % of control; the T/C (endpoint: median survival time, dose: 60.0 mg/kg/injection, schedule: Q01DX009 (ip), vehicle: Klucel (hydroxypropylcellulose) (HPC)) is 112 % of control; the T/C under setting [1] is 118 % of control and 121 % of control and 116 % of control.

Take `COC(=O)C(Cc1ccc(N(CCCl)CCCl)cc1)N=NNc1nc[nH]c1C(N)=O` (centres undefined): the T/C is, setting by setting: (endpoint: median survival time, dose: 8.0 mg/kg/injection, schedule: Q01DX005 (ip), vehicle: saline with Tween-80) 95 % of control; (endpoint: median survival time, dose: 16.0 mg/kg/injection, schedule: Q01DX005 (ip), vehicle: saline with Tween-80) 115 % of control; under setting [2], 95 % of control.

On to `CS(=O)(=O)CS(=O)(=O)OCCCl`, for which the T/C is, setting by setting: (endpoint: median survival time, dose: 6.25 mg/kg/injection, schedule: Q01DX009 (ip), vehicle: saline) 104 % of control; (endpoint: median survival time, dose: 12.5 mg/kg/injection, schedule: Q01DX009 (ip), vehicle: saline) 112 % of control; (endpoint: median survival time, dose: 50.0 mg/kg/injection, schedule: Q01DX009 (ip), vehicle: saline) 209 % of control.

Turning to `CCCCN(C)N=Nc1ccc([N+](=O)[O-])cc1C(N)=O`, the T/C reads like this: (endpoint: mean survival time, dose: 100.0 mg/kg/injection, schedule: Q01DX009 (ip), vehicle: saline with Tween-80) 112 % of control; (endpoint: mean survival time, dose: 200.0 mg/kg/injection, schedule: Q01DX009 (ip), vehicle: saline with Tween-80) 122 % of control; (endpoint: mean survival time, dose: 400.0 mg/kg/injection, schedule: Q01DX009 (ip), vehicle: saline with Tween-80) 100 % of control; (endpoint: mean survival time, dose: 600.0 mg/kg/injection, schedule: Q01DX009 (ip), vehicle: saline with Tween-80) 89 % of control; under setting [2], 102 % of control; under setting [1], 108 % of control. The T/C was 110 % of control (endpoint: median survival time, dose: 128.0 mg/kg/injection, schedule: Q01DX005 (ip), vehicle: saline with Tween-80) and 103 % of control (endpoint: median survival time, dose: 256.0 mg/kg/injection, schedule: Q01DX005 (ip), vehicle: saline with Tween-80).

These data come from PubChem BioAssay AID260 (DTP/NCI, 2004).
